How the values were obtained:
TRKA-wt kinase domain = molecular target: T1, TRKA-wt kinase domain (Homo sapiens, UniProt P04629); assay: Biochemical kinase assay, TRKA-wt; conditions: 2 mM ATP substrate solution, read-out: Ki^app TRKA-wt
T1 construct: TRKA-wt (1 nM, BPS Bio, 40280) kinase domains in buffer; purchased BPS Bio 40280
Outline: (§1)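 Kinase domains (in kinase solution: ROS1-G2032R 0.5 nM, ROS1-wt 0.6 nM, TRKA 1 nM, ALK L1196M/G1202R 3 nM) were mixed with compound and a substrate solution of 2 mM ATP plus 26 μM fluorogenic AQT0101 (ALK, ROS1) or AQT0104 (TRKA) in HEPES pH 7.5/MgCl2. Fluorescence was followed for 120 min at 30° C; Ki^app was obtained by Morrison fit of initial rates.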

ROS1-wt kinase domain = molecular target: T2, ROS1-wt kinase domain (Homo sapiens, UniProt P08922); assay: Biochemical kinase assay, ROS1-wt; conditions: 2 mM ATP substrate solution, read-out: Ki^app ROS1-wt
T2 construct: TRKA-wt (1 nM, BPS Bio, 40280) kinase domains in buffer; purchased Carna 08-163
Outline: as §1

ALK-wt kinase domain = molecular target: T3, ALK-wt kinase domain (Homo sapiens, UniProt Q9UM73); assay: Biochemical kinase assay, ALK-wt; conditions: 2 mM ATP substrate solution, read-out: Ki^app ALK-wt
T3 construct: TRKA-wt (1 nM, BPS Bio, 40280) kinase domains in buffer; purchased Carna 08-518
Outline: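 Apparent Ki values come from fitting initial reaction rates against inhibitor concentration to the Morrison equation. Rates were taken from the linear phase of fluorogenic substrate phosphorylation (AQT0101 for ALK and ROS1, AQT0104 for TRKA; 26 μM in substrate solution with 2 mM ATP), monitored at 485 nm over 120 min at 30° C.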

[1] = molecular target: T4, ALK L1196M/G1202R kinase domain (Homo sapiens, UniProt Q9UM73, G1202R/L1196M); assay: Biochemical kinase assay, ALK L1196M/G1202R; conditions: 2 mM ATP substrate solution, read-out: Ki^app ALK-L1196M-G1202R
T4 construct: TRKA-wt (1 nM, BPS Bio, 40280) kinase domains in buffer; purchased SignalChem A19-12NG
Outline: as §1

[2] = molecular target: T5, ROS1-G2032R kinase domain (Homo sapiens, UniProt P08922, G2032R); assay: Biochemical kinase assay, ROS1-G2032R; conditions: 2 mM ATP substrate solution, read-out: Ki^app ROS1-G2032R
T5 construct: TRKA-wt (1 nM, BPS Bio, 40280) kinase domains in buffer; purchased SignalChem R14-12BG
Outline: as §1

Row | SMILES | Ki (TRKA-wt kinase domain) | Ki (ROS1-wt kinase domain) | Ki (ALK-wt kinase domain) | Ki [1] | Ki [2]
1 | CCn1ncc2c1-c1cnc(N)c(c1)O[C@H](C)c1cc(F)ccc1-n1nc(OC)cc1C2 [Compound 98] | < 50 nM | < 50 nM | < 50 nM | < 50 nM | < 50 nM
2 | C[C@H]1Oc2cc(cnc2N)-c2c(C#N)nn(C)c2Cc2ccccc2-c2ccc(F)cc21 [Compound 117] | > 500 nM | < 50 nM | < 50 nM | < 50 nM | 50 to 500 nM
3 | CCn1ncc2c1-c1cnc(N)c(c1)O[C@H](C)c1cc(F)ccc1-c1nc(OC)ccc1C2 [Compound 145] | 50 to 500 nM | < 50 nM | < 50 nM | < 50 nM | < 50 nM
4 | CCc1nn(C)c2c1-c1cnc(N)c(c1)OCc1cc(F)ccc1-c1nn(C)cc1C2 [Compound 176] | > 500 nM | < 50 nM | < 50 nM | < 50 nM | 50 to 500 nM
5 | CCn1ncc2c1-c1cnc(N)c(c1)O[C@H](C)c1cc(F)ccc1-c1nn(C(C)(C)C)cc1C2 [Compound 150] | 50 to 500 nM | < 50 nM | < 50 nM | < 50 nM | < 50 nM
6 | Cc1nn(CC2CC2)c2c1Cc1cn(C)nc1-c1ccc(F)cc1[C@@H](C)Oc1cc-2cnc1N [Compound 53] | 50 to 500 nM | < 50 nM | < 50 nM | < 50 nM | < 50 nM
7 | C[C@H]1Oc2cc(cnc2N)-c2c(C#N)nn(C)c2Cc2csnc2-c2ccc(F)cc21 [Compound 143] | 50 to 500 nM | < 50 nM | < 50 nM | < 50 nM | < 50 nM
8 | CCn1nnc2c1-c1cnc(N)c(c1)O[C@H](C)c1cc(F)ccc1-c1ncc(F)cc1C2 [Compound 70] | 50 to 500 nM | < 50 nM | < 50 nM | < 50 nM | < 50 nM
9 | CCn1ncc2c1-c1cnc(N)c(c1)OCc1cc(F)ccc1-n1nccc1C2 [Compound 41] | > 500 nM | < 50 nM | < 50 nM | < 50 nM | < 50 nM
10 | C[C@H]1Oc2cc(cnc2N)-c2c(C#N)ncn2Cc2ccnn2-c2ccc(F)cc21 [Compound 58] | > 500 nM | < 50 nM | < 50 nM | < 50 nM | < 50 nM
11 | Cc1nc2c(s1)Cc1nnn(CC3CC3)c1-c1cnc(N)c(c1)O[C@H](C)c1cc(F)ccc1-2 [Compound 114] | 50 to 500 nM | < 50 nM | < 50 nM | < 50 nM | < 50 nM
12 | C[C@H]1Oc2cc(cnc2N)-c2c(CC(F)F)noc2Cc2cn(C)nc2-c2ccc(F)cc21 [Compound 85] | > 500 nM | < 50 nM | < 50 nM | < 50 nM | < 50 nM
13 | CCn1ncc2c1-c1cnc(N)c(c1)O[C@H](C)c1cc(F)ccc1-n1nccc1C2 [Compound 33] | < 50 nM | < 50 nM | < 50 nM | < 50 nM | < 50 nM
14 | C[C@H]1Oc2cc(cnc2N)-c2c(C(F)F)cnn2Cc2cc(F)cnc2-c2ccc(F)cc21 [Compound 17] | 50 to 500 nM | < 50 nM | < 50 nM | 50 to 500 nM | 50 to 500 nM
15 | CCn1ncc2c1-c1cnc(N)c(c1)O[C@H](C)c1cc(F)ccc1-n1nc(C(F)(F)F)cc1C2 [Compound 52] | 50 to 500 nM | < 50 nM | < 50 nM | < 50 nM | < 50 nM
16 | C[C@H]1Oc2cc(cnc2N)-c2c(cnn2CC2CC2)Cc2cc(C(F)F)nn2-c2ccc(F)cc21 [Compound 130] | 50 to 500 nM | < 50 nM | < 50 nM | < 50 nM | < 50 nM
17 | CCc1nsc2c1-c1cnc(N)c(c1)O[C@H](C)c1cc(F)ccc1-c1nn(C)cc1C2 [Compound 155] | < 50 nM | < 50 nM | < 50 nM | < 50 nM | < 50 nM
18 | C[C@H]1Oc2cc(cnc2N)-c2c(c(Cl)nn2CC(F)F)Cc2cn(C)nc2-c2ccc(F)cc21 [Compound 83] | > 500 nM | < 50 nM | < 50 nM | < 50 nM | < 50 nM
19 | C[C@H]1Oc2cc(cnc2N)-c2c(cnn2CC2CC2)Cc2cn(C(F)F)nc2-c2ccc(F)cc21 [Compound 160] | > 500 nM | < 50 nM | < 50 nM | < 50 nM | < 50 nM

Row | SMILES | Ki (TRKA-wt kinase domain) | Ki (ROS1-wt kinase domain) | Ki (ALK-wt kinase domain) | Ki [1] | Ki [2]
20 | C[C@H]1Oc2cc(cnc2N)-c2c(C#N)nn(C)c2Cc2cccnc2-c2ccc(F)cc21 [Compound 100] | 50 to 500 nM | < 50 nM | < 50 nM | < 50 nM | < 50 nM
21 | Cc1nc2c(s1)Cn1ncc(C(F)F)c1-c1cnc(N)c(c1)O[C@H](C)c1cc(F)ccc1-2 [Compound 68] | 50 to 500 nM | < 50 nM | < 50 nM | < 50 nM | < 50 nM
22 | CCn1ncc2c1-c1cnc(N)c(c1)O[C@H](C)c1cc(F)ccc1-c1ncoc1C2 [Compound 77] | 50 to 500 nM | < 50 nM | < 50 nM | < 50 nM | < 50 nM
23 | C[C@H]1Oc2cc(cnc2N)-c2c(C#N)nnn2Cc2cccnc2-c2ccc(F)cc21 [Compound 25] | > 500 nM | < 50 nM | < 50 nM | 50 to 500 nM | 50 to 500 nM
24 | C[C@H]1Oc2cc(cnc2N)-c2c(nn(C)c2C2CCC2)Cc2ccnn2-c2ccc(F)cc21 [Compound 174] | 50 to 500 nM | < 50 nM | < 50 nM | < 50 nM | < 50 nM
25 | CCn1nc(Cl)c2c1-c1cnc(N)c(c1)O[C@H](C)c1cc(F)ccc1-n1nc(C)cc1C2 [Compound 76] | < 50 nM | < 50 nM | < 50 nM | < 50 nM | < 50 nM
26 | Cc1cc2n(n1)-c1ccc(F)cc1COc1cc(cnc1N)-c1c(cnn1CC1CC1)C2 [Compound 126] | > 500 nM | < 50 nM | < 50 nM | < 50 nM | < 50 nM
27 | C[C@H]1Oc2cc(cnc2N)-c2c(CC3CC3)cnn2Cc2cccnc2-c2ccc(F)cc21 [Compound 146] | 50 to 500 nM | < 50 nM | < 50 nM | < 50 nM | < 50 nM
28 | Cc1nc(C#N)c2n1Cc1cccnc1-c1ccc(F)cc1[C@@H](C)Oc1cc-2cnc1N [Compound 18] | > 500 nM | < 50 nM | < 50 nM | < 50 nM | < 50 nM
29 | CCn1nc2c(c1C#N)-c1cnc(N)c(c1)O[C@H](C)c1cc(F)ccc1-n1nccc1C2 [Compound 119] | < 50 nM | < 50 nM | < 50 nM | < 50 nM | 50 to 500 nM
30 | CCn1ncc2c1-c1cnc(N)c(c1)OCc1cc(F)ccc1-c1nc(C)sc1C2 [Compound 89] | > 500 nM | < 50 nM | < 50 nM | < 50 nM | < 50 nM
31 | CCn1ncc2c1-c1cnc(N)c(c1)OCc1cc(F)ccc1-n1nc(C)cc1C2 [Compound 69] | 50 to 500 nM | < 50 nM | < 50 nM | < 50 nM | < 50 nM
32 | CCn1ncc2c1-c1cnc(N)c(c1)O[C@H](C)c1cc(F)ccc1-c1nccc(OC)c1C2 [Compound 151] | < 50 nM | < 50 nM | < 50 nM | < 50 nM | < 50 nM
33 | Cc1nc2c(s1)Cc1c(C)nn(CC3CC3)c1-c1cnc(N)c(c1)O[C@H](C)c1cc(F)ccc1-2 [Compound 134] | 50 to 500 nM | < 50 nM | < 50 nM | < 50 nM | < 50 nM
34 | CC1Oc2cc(cnc2N)-c2c(n[nH]c2C#N)Cc2cnn(C)c2-c2ccc(F)cc21 (stereo not shown) [Compound 168] | > 500 nM | < 50 nM | < 50 nM | < 50 nM | < 50 nM
35 | CCc1onc2c1-c1cnc(N)c(c1)O[C@H](C)c1cc(F)ccc1-c1nn(C)cc1C2 [Compound 152] | < 50 nM | < 50 nM | < 50 nM | < 50 nM | < 50 nM
36 | CCn1ncc2c1-c1ccc(F)cc1[C@@H](C)Oc1cc(cnc1N)-c1c(cnn1C)C2 [Compound 4] | < 50 nM | < 50 nM | < 50 nM | < 50 nM | < 50 nM
37 | CCn1ncc2c1-c1cnc(N)c(c1)OCc1cc(F)ccc1-n1ncc(F)c1C2 [Compound 48] | > 500 nM | < 50 nM | < 50 nM | < 50 nM | < 50 nM
38 | C[C@H]1Oc2cc(cnc2N)-c2c(nnn2CC2CC2)Cc2cccnc2-c2ccc(F)cc21 [Compound 116] | 50 to 500 nM | < 50 nM | < 50 nM | < 50 nM | < 50 nM
